The results in this text go back to patent US8865734B2 (priority 2010, dated 2014).

Data set [1] has as its system in vitro grown Mycobacteria (M. tuberculosis). As to the kind of experiment: QUM: Quantification of in vitro grown Mycobacteria (in vitro growth fluorescence assay). The class given is cell-based. The note with it: Mycobacterium tuberculosis; MIC, 80% bacterial growth inhibition; in vitro growth; read-out: QUM. The essentials: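 Mycobacterium tuberculosis grown in vitro was quantified by fluorescence across compound dose responses. MIC is defined as the minimum concentration producing 80% growth inhibition.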

The test system of data set [2] is M. tuberculosis inside the host macrophage. The data set can be described thus: QIM: Quantification of Intracellular Mycobacteria (intracellular growth assay, phenotypic cell-based). The note with it: Mycobacterium tuberculosis; MIC, 80% bacterial growth inhibition; intracellular growth; read-out: QIM. An outline of the steps:
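Phenotypic high-content assay measuring M. tuberculosis multiplication inside host macrophages, run as dose response. MIC is the minimum compound concentration giving 80% bacterial growth inhibition.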

As usually defined, the melting point is the temperature, or range, at which the solid turns liquid.

In brackets after ≈: the same amount, converted by molar mass. Where only a bound is given, the exact number is not on record here.

In the case of `CCc1nc2ccc(Cl)cn2c1COc1ccc(OC(F)(F)F)cc1` [Compound 239, 6-Chloro-2-ethyl-3-((4-(trifluoromethoxy)phenoxy)methyl)imidazo[1,2-a]pyridine], the melting point was in the range of 127 to 128 °C. For the same compound, the MIC in data set [1] was over 20 µM. Further, the MIC in data set [2] was over 20 µM.

In the case of `CCc1nc2ccc(Cl)cn2c1C(=O)NCc1ccc(N2CCN(Cc3ccc(OC(F)(F)F)cc3)CC2)cc1` [Compound 173, 6-Chloro-2-ethyl-N-(4-(4-(4-(trifluoromethoxy)benzyl)piperazin-1-yl)benzyl)imidazo[1,2-a]pyridine-3-carboxamide], the melting point lay within 138.1 to 138.7 °C. Moreover, the MIC in data set [1] was under 1 µM. In data set [2], the MIC was under 1 µM.

For `CCc1nc2ccc(Cl)cn2c1C(=O)NCC1CCN(Cc2ccc(F)cc2)CC1` [Compound 227, 6-Chloro-2-ethyl-N-((1-(4-fluorobenzyl)piperidin-4-yl)methyl)imidazo[1,2-a]pyridine-3-carboxamide], the melting point is 176 to 177 °C. Further, in data set [1], the MIC lay in the range of 1 to 20 µM (≈ 0.429 to 8.58 µg/mL). For the same compound, in data set [2], the MIC was under 1 µM.

As for `CCc1nc2ccc(Cl)cn2c1C(=O)N(C)Cc1ccc(N2CCN(c3ccc(F)cc3)CC2)cc1` [Compound 182, 6-Chloro-2-ethyl-N-(4-(4-(4-fluorophenyl)piperazin-1-yl)benzyl)-N-methylimidazo[1,2-a]pyridine-3-carboxamide], the melting point was in the range of 148 to 149 °C. Also, the MIC in data set [1] was under 1 µM. Also, the MIC in data set [2] fell in the range of 1 to 20 µM (≈ 0.506 to 10.1 µg/mL).

The compound `CCc1nc2cc(C)ccn2c1C(=O)NCc1ccc2ccccc2c1` [Compound 69, 2-Ethyl-7-methyl-N-(naphthalen-2-ylmethyl)imidazo[1,2-a]pyridine-3-carboxamide] yielded a melting point of 192 °C. For the same compound, the MIC in data set [1] was in the range of 1 to 20 µM (≈ 0.343 to 6.87 µg/mL). In data set [2], the MIC was under 1 µM.

With `CCc1nc2cc(Cl)ccn2c1C(=O)NCc1ccc(N2CC(C)OC(C)C2)cc1` (stereo not drawn) [Compound 210, 7-Chloro-N-(4-(2,6-dimethylmorpholino)benzyl)-2-ethylimidazo[1,2-a]pyridine-3-carboxamide], the melting point fell in the range of 165 to 166 °C. In data set [1], the MIC lay in the range of 1 to 20 µM (≈ 0.427 to 8.54 µg/mL). Also, the MIC in data set [2] is under 1 µM.

Compound `CCc1nc2cc(N3CCN(C)CC3)ccn2c1C(=O)NCc1ccc(N2CCOCC2)cc1` [Compound 328, 2-Ethyl-7-(4-methylpiperazin-1-yl)-N-(4-morpholinobenzyl)imidazo[1,2-a]pyridine-3-carboxamide] had a melting point of 204.8 °C. In addition, in data set [1], the MIC is over 20 µM. Further, the MIC in data set [2] is over 20 µM.

In the case of `CCc1nc2cc(Cl)ccn2c1C(=O)NCc1ccc(N2CCOCC2)cc1` [Compound 89, 7-Chloro-2-ethyl-N-(4-morpholinobenzyl)imidazo[1,2-a]pyridine-3-carboxamide], the melting point came to 195 °C. Besides, the MIC in data set [1] was under 1 µM. Moreover, in data set [2], the MIC lay within 1 to 20 µM (≈ 0.399 to 7.98 µg/mL).

Take `CCc1nc2ccccn2c1C(=O)NCc1ccc(N2CCN(c3ccc(F)cc3)CC2)cc1` [Compound 303, 2-Ethyl-N-(4-(4-(4-fluorophenyl)piperazin-1-yl)benzyl)imidazo[1,2-a]pyridine-3-carboxamide]: the melting point is 189.2 °C. For the same compound, in data set [1], the MIC is under 1 µM. For the same compound, in data set [2], the MIC was under 1 µM.

Compound `CCc1nc2cc(Cl)ccn2c1C(=O)NCc1ccc(Oc2ccc(Cl)cc2)cc1` [Compound 191, 7-Chloro-N-(4-(4-chlorophenoxy)benzyl)-2-ethylimidazo[1,2-a]pyridine-3-carboxamide] showed a melting point of 167.1 to 167.9 °C. The MIC in data set [1] is under 1 µM. In addition, the MIC in data set [2] was under 1 µM.

On to `CCc1nc2cc(Cl)ccn2c1C(=O)NCc1ccc(Oc2ccc(OC(F)(F)F)cc2)cc1` [Compound 186, 7-Chloro-2-ethyl-N-(4-(4-(trifluoromethoxy)phenoxy)benzyl)imidazo[1,2-a]pyridine-3-carboxamide], for which the melting point lay within 141 to 142 °C. Also, the MIC in data set [1] is under 1 µM. The MIC in data set [2] was under 1 µM.

Take `CCc1nc2cc(C)ccn2c1C(=O)NCc1ccc(N2CCOCC2)cc1` [Compound 68, 2-Ethyl-7-methyl-N-(4-morpholinobenzyl)imidazo[1,2-a]pyridine-3-carboxamide]: the melting point was determined as 190 °C. Also, the MIC in data set [1] was in the range of 1 to 20 µM (≈ 0.378 to 7.57 µg/mL). In addition, in data set [2], the MIC is under 1 µM.

In turn, `CCc1nc2cc(Br)ccn2c1C(=O)NCc1ccc(N2CCN(c3ccc(F)cc3)CC2)cc1` [Compound 311, 7-Bromo-2-ethyl-N-(4-(4-(4-fluorophenyl)piperazin-1-yl)benzyl)imidazo[1,2-a]pyridine-3-carboxamide] registered a melting point of 214.6 °C. Further, the MIC in data set [1] was under 1 µM. For the same compound, the MIC in data set [2] was under 1 µM.

`CCc1nc2ccc(Cl)cn2c1C(=O)NCc1ccc(N2CCC(COC)CC2)cc1` [Compound 281, 6-Chloro-2-ethyl-N-(4-(4-(methoxymethyl)piperidin-1-yl)benzyl)imidazo[1,2-a]pyridine-3-carboxamide] had a melting point of 162.1 °C. In data set [1], the MIC is under 1 µM. Besides, the MIC in data set [2] was under 1 µM.

In turn, `CCc1nc2ccc(Cl)cn2c1C(=O)NCCc1ccc(Cl)cc1` [Compound 158, 6-Chloro-N-(4-chlorophenethyl)-2-ethylimidazo[1,2-a]pyridine-3-carboxamide] came in with a melting point of 158 to 159 °C. Moreover, the MIC in data set [1] is under 1 µM. Further, the MIC in data set [2] is under 1 µM.

Compound `CCc1nc2ccc(Cl)cn2c1C(=O)NCc1ccc(Oc2ccc(Cl)cc2)cc1` [Compound 190, 6-Chloro-N-(4-(4-chlorophenoxy)benzyl)-2-ethylimidazo[1,2-a]pyridine-3-carboxamide] yielded a melting point of 159 to 160.7 °C. The MIC in data set [1] is under 1 µM. Also, in data set [2], the MIC was under 1 µM.

As for `CCc1nc2cc(Cl)ccn2c1C(=O)NCc1ccc(N2CCN(c3ccc(OC(F)(F)F)cc3)CC2)cc1` [Compound 179, 7-Chloro-2-ethyl-N-(4-(4-(4-(trifluoromethoxy)phenyl)piperazin-1-yl)benzyl)imidazo[1,2-a]pyridine-3-carboxamide], the melting point is 216.3 to 217 °C. Moreover, the MIC in data set [1] was under 1 µM. Besides, in data set [2], the MIC is under 1 µM.

Take `CCc1nc2c(F)cccn2c1C(=O)NCc1ccc(N2CCN(c3ccc(F)cc3)CC2)cc1` [Compound 310, 2-Ethyl-8-fluoro-N-(4-(4-(4-fluorophenyl)piperazin-1-yl)benzyl)imidazo[1,2-a]pyridine-3-carboxamide]: the melting point stood at 204.1 °C. In addition, the MIC in data set [1] is under 1 µM. The MIC in data set [2] is under 1 µM.

Compound `CCc1nc2ccccn2c1C(=O)NCc1ccc(/N=C/c2ccc(OC(F)(F)F)cc2)cc1` [Compound 261] had a melting point of 194 °C. Moreover, the MIC in data set [1] is over 20 µM. In addition, the MIC in data set [2] is over 20 µM.

Compound `CCc1nc2ccc(Cl)cn2c1C(=O)NC1CCN(Cc2ccc(OC(F)(F)F)cc2)CC1` [Compound 229, 6-Chloro-2-ethyl-N-(1-(4-(trifluoromethoxy)benzyl)piperidin-4-yl)imidazo[1,2-a]pyridine-3-carboxamide] registered a melting point of 157 to 158 °C. Also, the MIC in data set [1] is over 20 µM. The MIC in data set [2] is over 20 µM.

In the case of `CCc1nc2cc(Cl)ccn2c1C(=O)NCC1CCN(Cc2ccc(OC(F)(F)F)cc2)CC1` [Compound 228, 7-Chloro-2-ethyl-N-((1-(4-(trifluoromethoxy)benzyl)piperidin-4-yl)methyl)imidazo[1,2-a]pyridine-3-carboxamide], the melting point lay in the range of 145 to 146 °C. The MIC in data set [1] is over 20 µM. Further, the MIC in data set [2] was over 20 µM.

On to `CCc1nc2cc(Cl)ccn2c1C(=O)NCc1ccc(N2CCN(c3ccc(F)cc3)CC2)cc1` [Compound 176, 7-Chloro-2-ethyl-N-(4-(4-(4-fluorophenyl)piperazin-1-yl)benzyl)imidazo[1,2-a]pyridine-3-carboxamide], for which the melting point was 212 to 213 °C. Also, the MIC in data set [1] was under 1 µM. Also, the MIC in data set [2] is under 1 µM.

As to `CCc1nc2ccc(Cl)cn2c1C(=O)NCc1ccc(N2CC(C)OC(C)C2)cc1` (stereo not drawn) [Compound 209, 6-Chloro-N-(4-(2,6-dimethylmorpholino)benzyl)-2-ethylimidazo[1,2-a]pyridine-3-carboxamide], the melting point was 176 to 177 °C. The MIC in data set [1] was under 1 µM. Also, the MIC in data set [2] was under 1 µM.

On to `CCc1nc2cnccn2c1C(=O)NCc1ccc(OC(F)(F)F)cc1` [Compound 155, 2-Ethyl-N-(4-(trifluoromethoxy)benzyl)imidazo[1,2-a]pyrazine-3-carboxamide], for which the melting point lay within 176 to 177 °C. The MIC in data set [1] was over 20 µM. Further, the MIC in data set [2] is over 20 µM.

Compound `CCc1nc2cc(C)ccn2c1C(=O)NCc1ccc(N2CCN(c3ccc(F)cc3)CC2)cc1` [Compound 309, 2-Ethyl-N-(4-(4-(4-fluorophenyl)piperazin-1-yl)benzyl)-7-methylimidazo[1,2-a]pyridine-3-carboxamide] returned a melting point of 203.7 °C. Also, the MIC in data set [1] is under 1 µM. For the same compound, in data set [2], the MIC is under 1 µM.

As for `CCc1nc2ccc(Cl)cn2c1C(=O)NCc1ccc(N2CC(C)CC(C)C2)cc1` (stereo not drawn) [Compound 216, 6-Chloro-N-(4-(3,5-dimethylpiperidin-1-yl)benzyl)-2-ethylimidazo[1,2-a]pyridine-3-carboxamide], the melting point was 157.2 to 158 °C. In addition, in data set [1], the MIC was under 1 µM. In addition, the MIC in data set [2] is under 1 µM.

`CCc1nc2ccc(Cl)cn2c1CNc1ccc(N2CCN(c3ccc(F)cc3)CC2)cc1` [Compound 241, N-((6-Chloro-2-ethylimidazo[1,2-a]pyridin-3-yl)methyl)-4-(4-(4-fluorophenyl)piperazin-1-yl)aniline] had a melting point of 191 to 192 °C. Besides, the MIC in data set [1] is over 20 µM. Besides, the MIC in data set [2] is over 20 µM.
